Laboratory results as given in patent US20110086759A1, “CHEMICAL COMPOUNDS” (SYNGENTA CROP PROTECTION, INC., priority 2007, published 2011).

What was measured:
Type in all cases: in vivo
[1] = tested on: Alopecurus myosuroides (ALOMY); assay: Post-emergence biological efficacy, glasshouse pot test; details: 312 h
Procedure, shortened: (§1)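 Pot-grown weeds were sprayed 8 days after sowing with test compound in acetone/water (50:50) with 0.5% Tween 20 at 1000 or 250 g/ha. Glasshouse at 24/16° C day/night, 14 h light, 65% humidity. Damage scored 0-100 (100 = total damage) after 13 days.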

[2] = tested on: Amaranthus retoflexus (AMARE); assay: as above; details: Amaranthus retroflexus, 312 h
Procedure, shortened: as §1

[3] = tested on: Echinochloa crus-galli (ECHCG); assay: as above; details: 312 h
Procedure, shortened: as §1

Solanum nigrum (SOLNI) [4] = assay: as above; details: 312 h
Procedure, shortened: as §1

Setaria faberi (SETFA) [5] = assay: as above; details: 312 h
Procedure, shortened: as §1

[6] = tested on: Ipomea hederaceae (IPOHE); assay: as above; details: Ipomoea hederacea, 312 h
Procedure, shortened: as §1

[7] = tested on: Alopecurus myosuroides (ALOMY); assay: Pre-emergence biological efficacy, glasshouse pot test; details: 312 h
Procedure, shortened: (§2)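 Glasshouse pot test: spray on soil one day after sowing, 1000 or 250 g/ha. Conditions 24/16 °C day/night, 14 h light, 65% humidity. Plant damage scored 0–100 at 13 days.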

[8] = tested on: Amaranthus retoflexus (AMARE); assay: as above; details: Amaranthus retroflexus, 312 h
Procedure, shortened: as §2

[9] = tested on: Echinochloa crus-galli (ECHCG); assay: as above; details: 312 h
Procedure, shortened: as §2

Solanum nigrum (SOLNI) [10] = assay: as above; details: 312 h
Procedure, shortened: as §2

Setaria faberi (SETFA) [11] = assay: as above; details: 312 h
Procedure, shortened: as §2

[12] = tested on: Ipomea hederaceae (IPOHE); assay: as above; details: Ipomoea hederacea, 312 h
Procedure, shortened: as §2

[13] = post-emergence, 1,000 g/ha, evaluated after 13 days (100=total damage; 0=no damage), read-out: Percentage damage caused to weed species, ALOMY
[14] = post-emergence, 1,000 g/ha, evaluated after 13 days (100=total damage; 0=no damage), read-out: Percentage damage caused to weed species, AMARE
[15] = post-emergence, 1,000 g/ha, evaluated after 13 days (100=total damage; 0=no damage), read-out: Percentage damage caused to weed species, ECHCG
[16] = post-emergence, 1,000 g/ha, evaluated after 13 days (100=total damage; 0=no damage), read-out: Percentage damage caused to weed species, SOLNI
[17] = post-emergence, 1,000 g/ha, evaluated after 13 days (100=total damage; 0=no damage), read-out: Percentage damage caused to weed species, SETFA
[18] = post-emergence, 1,000 g/ha, evaluated after 13 days (100=total damage; 0=no damage), read-out: Percentage damage caused to weed species, IPOHE
[19] = pre-emergence, 1,000 g/ha, evaluated after 13 days (100=total damage; 0=no damage), read-out: Percentage damage ALOMY
[20] = pre-emergence, 1,000 g/ha, evaluated after 13 days (100=total damage; 0=no damage), read-out: Percentage damage AMARE
[21] = pre-emergence, 1,000 g/ha, evaluated after 13 days (100=total damage; 0=no damage), read-out: Percentage damage ECHCG
[22] = pre-emergence, 1,000 g/ha, evaluated after 13 days (100=total damage; 0=no damage), read-out: Percentage damage SOLNI
[23] = pre-emergence, 1,000 g/ha, evaluated after 13 days (100=total damage; 0=no damage), read-out: Percentage damage SETFA
[24] = pre-emergence, 1,000 g/ha, evaluated after 13 days (100=total damage; 0=no damage), read-out: Percentage damage IPOHE
[25] = Rate 1,000 g/ha, post-emergence spray, evaluated after 13 days (100=total damage to plant; 0=no damage to plant), read-out: Percentage damage caused to weed species, post-emergence, ALOMY
[26] = Rate 1,000 g/ha, post-emergence spray, evaluated after 13 days (100=total damage to plant; 0=no damage to plant), read-out: Percentage damage caused to weed species, post-emergence, AMARE
[27] = Rate 1,000 g/ha, post-emergence spray, evaluated after 13 days (100=total damage to plant; 0=no damage to plant), read-out: Percentage damage caused to weed species, post-emergence, ECHCG
[28] = Rate 1,000 g/ha, post-emergence spray, evaluated after 13 days (100=total damage to plant; 0=no damage to plant), read-out: Percentage damage caused to weed species, post-emergence, SOLNI
[29] = Rate 1,000 g/ha, post-emergence spray, evaluated after 13 days (100=total damage to plant; 0=no damage to plant), read-out: Percentage damage caused to weed species, post-emergence, SETFA
[30] = Rate 1,000 g/ha, post-emergence spray, evaluated after 13 days (100=total damage to plant; 0=no damage to plant), read-out: Percentage damage caused to weed species, post-emergence, IPOHE
[31] = pre-emergence, rate 1,000 g/ha, evaluated after 13 days (100=total damage to plant; 0=no damage), read-out: Percentage damage caused to weed species, ALOMY
[32] = pre-emergence, rate 1,000 g/ha, evaluated after 13 days (100=total damage to plant; 0=no damage), read-out: Percentage damage caused to weed species, AMARE
[33] = pre-emergence, rate 1,000 g/ha, evaluated after 13 days (100=total damage to plant; 0=no damage), read-out: Percentage damage caused to weed species, ECHCG
[34] = pre-emergence, rate 1,000 g/ha, evaluated after 13 days (100=total damage to plant; 0=no damage), read-out: Percentage damage caused to weed species, SOLNI
[35] = pre-emergence, rate 1,000 g/ha, evaluated after 13 days (100=total damage to plant; 0=no damage), read-out: Percentage damage caused to weed species, SETFA
[36] = pre-emergence, rate 1,000 g/ha, evaluated after 13 days (100=total damage to plant; 0=no damage), read-out: Percentage damage caused to weed species, IPOHE

SMILES	pest or weed control at 1000 g/ha [1, 13] [%]	pest or weed control at 1000 g/ha [2, 14] [%]	pest or weed control at 1000 g/ha [3, 15] [%]	pest or weed control at 1000 g/ha (Solanum nigrum (SOLNI) [4]; [16]) [%]	pest or weed control at 1000 g/ha (Setaria faberi (SETFA) [5]; [17]) [%]	pest or weed control at 1000 g/ha [6, 18] [%]	pest or weed control at 1000 g/ha [7, 19] [%]	pest or weed control at 1000 g/ha [8, 20] [%]	pest or weed control at 1000 g/ha [9, 21] [%]	pest or weed control at 1000 g/ha (Solanum nigrum (SOLNI) [10]; [22]) [%]	pest or weed control at 1000 g/ha (Setaria faberi (SETFA) [11]; [23]) [%]	pest or weed control at 1000 g/ha [12, 24] [%]	pest or weed control at 1000 g/ha [1, 25] [%]	pest or weed control at 1000 g/ha [2, 26] [%]	pest or weed control at 1000 g/ha [3, 27] [%]	pest or weed control at 1000 g/ha (Solanum nigrum (SOLNI) [4]; [28]) [%]	pest or weed control at 1000 g/ha (Setaria faberi (SETFA) [5]; [29]) [%]	pest or weed control at 1000 g/ha [6, 30] [%]	pest or weed control at 1000 g/ha [7, 31] [%]	pest or weed control at 1000 g/ha [8, 32] [%]	further results
COC(=O)c1nc(C2CC2)nc(NCC2CCC=CO2)c1Cl (stereo not drawn) [Compound 4-56, 5-Chloro-2-cyclopropyl-4-[(3,4-dihydro-2H-pyran-2-yl)methylamino]-6-methoxy-carbonylpyrimidine]	20	100	30	80	40	80	40	100	30	90	20	100									
COC(=O)c1nc(C2CC2)nc(NCc2ccc(F)cc2F)c1Cl [Compound 4-97, 5-Chloro-2-cyclopropyl-4-(2,4-difluorophenyl-methylamino)-6-methoxycarbonyl-pyrimidine]	20	100	80	100	90	100	20	40	40	50	40	60									
COC(=O)c1nc(C2CC2)nc(NC2(/C=C/c3ccccc3)CC2)c1Cl [4-19 (E), 5-Chloro-2-cyclopropyl-6-methoxycarbonyl-4-[1-(2-phenyl-ethenyl)-cyclo-propylamino]-pyrimidine]	20	100	40	80	70	100	20	40	20	60	20	80									
COC(=O)c1nc(C2CC2)nc(NCC(C)(F)c2cccc(C(F)(F)F)c2)c1Cl (stereo not drawn) [Compound 4-242, 5-Chloro-2-cyclopropyl-4-[2-fluoro-2-(3-trifluoromethyl-phenyl)propyl-amino]-6-methoxy-carbonylpyrimidine]	0	90	0	60	10	50	0	10	0	0	0	10									
CCN(c1nc(C2CC2)nc(C(=O)OC)c1Cl)C1CCCCC1 [Compound 6-35, 5-Chloro-4-(N-cyclohexyl-N-ethyl-amino)-2-cyclo-propyl-6-methoxy-carbonylpyrimidine]													0	70	0	70	40	80	10	100	pest or weed control at 1000 g/ha [9, 33]: 0%; pest or weed control at 1000 g/ha (Solanum nigrum (SOLNI) [10]; [34]): 60%; pest or weed control at 1000 g/ha (Setaria faberi (SETFA) [11]; [35]): 0%; pest or weed control at 1000 g/ha [12, 36]: 30%
COC(=O)c1nc(C2CC2)nc(N(C)Cc2cccc(OC)c2)c1Cl [Compound 5-79, 5-Chloro-2-cyclopropyl-6-methoxycarbonyl-4-[N-(3-methoxy-phenylmethyl)-N-methyl-amino]-pyrimidine]													0	100	0	80	30	70	0	70	pest or weed control at 1000 g/ha [9, 33]: 0%; pest or weed control at 1000 g/ha (Solanum nigrum (SOLNI) [10]; [34]): 40%; pest or weed control at 1000 g/ha (Setaria faberi (SETFA) [11]; [35]): 0%; pest or weed control at 1000 g/ha [12, 36]: 50%
COC(=O)c1nc(C2CC2)nc(NC2(/C=C/c3cccc(Cl)c3Cl)CC2)c1Cl [Compound 4-29, 5-Chloro-2-cyclopropyl-4-{1-[2-(2,3-dichloro-phenyl)ethenyl]-cyclopropylamino}-6-methoxycarbonyl-pyrimidine]	10	90	30	100	60	100	10	30	0	30	10	70									
COC(=O)c1nc(Cl)nc(NCc2ccc(C)o2)c1Cl [Compound 207-50, 2,5-Dichloro-6-methoxycarbonyl-4-(5-methylfuran-2-ylmethylamino)-pyrimidine]													0	40	0	80	0	70	0	60	pest or weed control at 1000 g/ha [9, 33]: 0%; pest or weed control at 1000 g/ha (Solanum nigrum (SOLNI) [10]; [34]): 80%; pest or weed control at 1000 g/ha (Setaria faberi (SETFA) [11]; [35]): 0%; pest or weed control at 1000 g/ha [12, 36]: 40%
COC(=O)c1nc(-c2ccc(Cl)c(Cl)c2Cl)nc(NCc2ccco2)c1Cl [Compound 231-48, 5-Chloro-4-(furan-2-ylmethylamino)-6-methoxycarbonyl-2-(2,3,4-trichloro-phenyl)pyrimidine]													50	100	30	80	70	70	40	100	pest or weed control at 1000 g/ha [9, 33]: 30%; pest or weed control at 1000 g/ha (Solanum nigrum (SOLNI) [10]; [34]): 40%; pest or weed control at 1000 g/ha (Setaria faberi (SETFA) [11]; [35]): 20%; pest or weed control at 1000 g/ha [12, 36]: 10%
